Source: patent US20110195116A1, “RATE MODULATED DELIVERY OF DRUGS FROM A COMPOSITE DELIVERY SYSTEM” (ADCOCK INGRAM HEALTHCARE PTY LIMITED, priority 2008, published 2011)
Where a name gives a salt, the structure may show the parent alone. Read-outs that look alike come from different tables or passages of the source.

Key:
[1] = cited from earlier work
[2] = dissolution study, USP paddle, phosphate buffer pH 6.8; type: physicochemical
Experimental: Initial dissolution characteristics of the combined APIs paracetamol, tramadol hydrochloride and diclofenac potassium; individual and combined cellulose and ethylene oxide-based polymers were determined by producing experimental batches of tablets. These were produced on a Manesty Single Punch Type F3 machine by direct compression and wet granulation techniques into monolithic matrix and multi-layered systems, as shown in FIG. 1. In situ crosslinking of various alginate, pectin and eudragit polymers with salts such as zinc gluconate was also investigated for an influence on the release characteristics of the solid dosage system.
(§1) Dissolution studies were conducted using a USP rotating paddle method (Hanson Virtual Instruments SR8 Plus Dissolution Test Stations) at 50 rpm in phosphate buffer pH 6.8 (900 mL, 37° C.±0.5° C.) for each formulation employing an autosampler (Hanson Research Auto Plus Maximiser and AutoPlus™ MultiFill™). Samples of 1.6 mL were withdrawn over a period of 12 to 20 hours and analysed via HPLC. Release profiles in simulated gastric fluid pH 1.2 without pepsin over a period of four hours were determined to identify any site-specific release induced by the polymers. The dissolution studies were performed under the conditions described in Table 1.

[3] = in vivo; cited from earlier work
[4] = dissolution study, USP paddle, simulated gastric fluid pH 1.2 without pepsin; type: physicochemical; conditions: cellulose, polyethylene oxide and alginate polymer formulations
Experimental: as §1
The alginate and zinc gluconate addition was then included in a formulation where the HEC and HPC had been further reduced to 45.31 mg and 90.6 mg respectively (FIG. 16).
In order to establish the potential site-specific release potential of the polymeric dosage form, formulations consisting of cellulose, polyethylene oxide and alginate polymers were subjected to dissolution studies in simulated gastric fluid pH 1.2 without pepsin.

[5] = dosage form with pectin, alginate and eudragit polymers crosslinked with metallic salts

O=C(O)Cc1ccccc1Nc1c(Cl)cccc1Cl [Diclofenac]
water solubility ([1]; at pH 6.8): 0.187%

CC(=O)Nc1ccc(O)cc1 [Paracetamol]
release kinetics [2, 5]: first-order
water solubility ([1]; at 20° C.): 1.4%

COc1cccc(C2(O)CCCCC2CN(C)C)c1 (stereo not drawn) [Tramadol]
elimination half-life (t1/2) [3]: 6 h

O=C(O)Cc1ccccc1Nc1c(Cl)cccc1Cl [diclofenac potassium]
release kinetics ([2]; cellulose and polyethylene oxide-based formulation compressed as layered dosage form): zero-order
release kinetics ([2]; cellulose and polyethylene oxide-based formulation compressed as monolithic matrix): first-order
release kinetics [2, 5]: zero-order
release in simulated gastric fluid [4]: not released

COc1cccc(C2(O)CCCCC2CN(C)C)c1 (stereo not drawn) [tramadol hydrochloride]
release kinetics [2, 5]: first-order
